From patent US11198713B2, “Agents modulating beta-catenin functions and methods thereof” (FOG PHARMACEUTICALS, INC., priority 2017, dated 2021)
Read-outs that look alike come from different tables or passages of the source.

Assays:
[1] = biological target: T1, biotinylated beta-catenin (Homo sapiens, UniProt P35222); test: Surface Plasmon Resonance (Biacore); assay type: binding
T1 sequence (P35222 1-781): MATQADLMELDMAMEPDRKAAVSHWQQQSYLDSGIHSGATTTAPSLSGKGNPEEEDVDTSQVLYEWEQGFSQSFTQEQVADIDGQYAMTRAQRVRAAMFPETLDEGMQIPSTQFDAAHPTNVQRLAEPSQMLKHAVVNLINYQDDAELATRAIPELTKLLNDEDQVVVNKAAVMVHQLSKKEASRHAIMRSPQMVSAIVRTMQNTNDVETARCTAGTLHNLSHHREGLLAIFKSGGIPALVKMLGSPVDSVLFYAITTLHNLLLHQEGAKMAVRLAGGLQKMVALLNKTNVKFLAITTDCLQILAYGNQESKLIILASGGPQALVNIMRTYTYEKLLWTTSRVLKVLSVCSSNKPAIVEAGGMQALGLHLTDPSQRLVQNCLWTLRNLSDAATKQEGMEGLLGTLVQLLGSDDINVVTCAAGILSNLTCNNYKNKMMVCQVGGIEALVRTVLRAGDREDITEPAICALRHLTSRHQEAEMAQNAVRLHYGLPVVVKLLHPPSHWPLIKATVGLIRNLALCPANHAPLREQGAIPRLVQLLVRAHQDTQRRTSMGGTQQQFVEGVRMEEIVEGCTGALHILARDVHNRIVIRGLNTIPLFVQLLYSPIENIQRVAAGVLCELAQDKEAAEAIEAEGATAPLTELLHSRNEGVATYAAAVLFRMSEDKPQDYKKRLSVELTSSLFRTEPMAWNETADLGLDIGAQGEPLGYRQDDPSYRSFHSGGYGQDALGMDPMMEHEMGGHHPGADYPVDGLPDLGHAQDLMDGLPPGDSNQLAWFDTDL
Procedure: Additionally or alternatively, binding to beta-catenin may be measured by Surface Plasmon Resonance. In an exemplary assay, approximately 6 nmol dried peptide diluted in buffer (50 mM Tris pH 8.0, 300 mM NaCl, 2% glycerol, 0.5 mM TCEP, 0.5 mM EDTA, 0.005% Tween-20, 1 mg/mL CM Dextran, 0.02% w/v sodium azide) was assayed on a Biacore X100 using the Biacore Biotin CAPture Kit (GE Healthcare) and biotinylated beta-catenin. Results were analyzed using the Biacore X100 Evaluation Software. […] FPO217c (Isomer 2) bound to the armadillo domain of β-catenin with a Kd of 2 nM.

[2] = biological target: T2, full-length beta-catenin (Axin site) (Homo sapiens, UniProt P35222); test: Competition fluorescence polarization assay (Axin site probe); assay type: binding
T2 construct: 15 nM full-length beta-catenin, 20 nM FITC labeled peptide in buffer
T2 sequence (P35222 1-781): T1 sequence (P35222 1-781)
How it was run: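 Competition FP: 15 nM full-length β-catenin pre-incubated 5 min with 20 nM FITC-labelled stapled Axin-site peptide, then titrated peptide added (3-fold series from 5 μM) for 15 min in the dark. Buffer 50 mM Tris pH 8.0, 250 mM NaCl, 2% glycerol, 0.5 mM EDTA; duplicate reads.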

[3] = competition fluorescence polarization, Table 2, read-out: in vitro FP EC50
[4] = Biacore, biotinylated beta-catenin, read-out: Kd
[5] = competition with FITC labeled Axin-site probe, 15 nM full-length beta-catenin, read-out: FP EC50

Row | SMILES | Kd ([1]; Table 2, read-out: Kd by SPR) [µM] | EC50 [2, 3] [µM] | Kd [1, 4] [µM] | EC50 [2, 5] [µM]
1 | CC[C@H](C)[C@@H]1NC(=O)[C@H](Cc2c[nH]cn2)NC(=O)[C@H](C)NC(=O)[C@H](CC(=O)O)NC(=O)[C@H](CC(C)C)NC(=O)[C@H]([C@@H](C)CC)NC(=O)[C@](C)(NC(=O)[C@H](C)NC(C)=O)CCCCCCC=CCOC(=O)N(C)C[C@@](C)(C(=O)N[C@@H](CCCNC(=N)N)C(=O)N[C@H](C(=O)N[C@@H](Cc2c[nH]c3ccccc23)C(N)=O)C(C)C)NC1=O [FP0338c, Ac-A-R8-I-L-D-A-H-I-MD-R-V-W-NH2] | 0.003 | 0.1 to 0.5 |  | 
2 | CC[C@H](C)[C@@H]1NC(=O)[C@@](C)(NC(=O)[C@H](CCC(N)=O)NC(=O)[C@@H]2CCCN2C(C)=O)CCCC=CCCC[C@@](C)(C(=O)N[C@@H](Cc2c[nH]cn2)C(=O)N[C@H](C(=O)N[C@@H](CCCNC(=N)N)C(=O)N[C@@H](CCCNC(=N)N)C(=O)N[C@H](C(=O)N[C@@H](Cc2c[nH]c3ccccc23)C(=O)N[C@@H](CCCNC(=N)N)C(N)=O)C(C)C)C(C)C)NC(=O)[C@H](CC(=O)O)NC(=O)[C@H](CC(C)C)NC1=O (single isomer, unassigned) [FP-0787c] |  |  | ~0.014 | 
3 | CC[C@H](C)[C@@H]1NC(=O)[C@@](C)(NC(=O)[C@H](CCC(N)=O)NC(=O)[C@@H]2CCCN2C(C)=O)CCCC=CCCC[C@@](C)(C(=O)N[C@@H](Cc2c[nH]cn2)C(=O)N[C@H](C(=O)N[C@@H](CCCNC(=N)N)C(=O)N[C@@H](CCCNC(=N)N)C(=O)N[C@H](C(=O)N[C@@H](Cc2c[nH]c3ccccc23)C(=O)N[C@@H](CCCNC(=N)N)C(N)=O)C(C)C)C(C)C)NC(=O)[C@H](CC(=O)O)NC(=O)[C@H](CC(C)C)NC1=O [FP0787s, Ac-P-Q-S5-I-L-D-S5-H-V-R-R-V-W-R-NH2] | 0.014 | 0.1 to 0.5 |  | 
4 | CC[C@H](C)[C@@H]1NC(=O)[C@](C)(NC(=O)[C@H](C)NC(=O)[C@@H]2CCCN2C(C)=O)CCCCCCC=CCOC(=O)N2CC[C@@](C(=O)N[C@@H](CCCNC(=N)N)C(=O)N[C@H](C(=O)N[C@@H](Cc3c[nH]c4ccccc34)C(N)=O)C(C)C)(C2)NC(=O)[C@H](C(C)C)NC(=O)[C@H](Cc2c[nH]cn2)NC(=O)[C@H](C)NC(=O)[C@H](CC(=O)O)NC(=O)[C@H](CC(C)C)NC1=O [FP0025c, Ac-P-A-R8-I-L-D-A-H-V-MB-R-V-W-NH2] |  | < 0.1 | 0.015 | < 0.1
5 | CC[C@H](C)[C@@H]1NC(=O)[C@@](C)(NC(=O)[C@H](CCC(N)=O)NC(=O)[C@@H]2CCCN2C(C)=O)CCCCCC=CCN2CC(C(=O)N[C@@H](Cc3c[nH]cn3)C(=O)N[C@H](C(=O)N[C@@H](CCCNC(=N)N)C(=O)N[C@@H](CCCNC(=N)N)C(=O)N[C@H](C(=O)N[C@@H](Cc3c[nH]c4ccccc34)C(=O)N[C@@H](CCCNC(=N)N)C(N)=O)C(C)C)C(C)C)(C2)NC(=O)[C@H](CC(=O)O)NC(=O)[C@H](CC(C)C)NC1=O (single isomer, unassigned) [FP-0738a] |  |  | ~0.043 | 0.2
6 | CC[C@H](C)[C@@H]1NC(=O)C2(NC(=O)[C@H](CCC(N)=O)NC(=O)[C@@H]3CCCN3C(C)=O)CN(C2)C(=O)OCC=CCCCC[C@](C)(C(=O)N[C@@H](Cc2c[nH]cn2)C(=O)N[C@H](C(=O)N[C@@H](CCCNC(=N)N)C(=O)N[C@@H](CCCNC(=N)N)C(=O)N[C@H](C(=O)N[C@@H](Cc2c[nH]c3ccccc23)C(=O)N[C@@H](CCCNC(=N)N)C(N)=O)C(C)C)C(C)C)NC(=O)[C@H](CC(=O)O)NC(=O)[C@H](CC(C)C)NC1=O (single isomer, unassigned) [FP-0725c, Ac-P-Q-Az-I-L-D-R6-H-V-R-R-V-W-R-NH2] |  |  | ~0.022 | 
7 | CC[C@H](C)[C@@H]1NC(=O)[C@](C)(NC(=O)[C@H](CCC(N)=O)NC(=O)[C@@H]2CCCN2C(C)=O)CCCC=CCOC(=O)N2CC[C@](C(=O)N[C@@H](Cc3c[nH]cn3)C(=O)N[C@H](C(=O)N[C@@H](CCCNC(=N)N)C(=O)N[C@@H](CCCNC(=N)N)C(=O)N[C@H](C(=O)N[C@@H](Cc3c[nH]c4ccccc34)C(=O)N[C@@H](CCCNC(=N)N)C(N)=O)C(C)C)C(C)C)(C2)NC(=O)[C@H](CC(=O)O)NC(=O)[C@H](CC(C)C)NC1=O (single isomer, unassigned) [FP-0766c, Ac-P-Q-R5-I-L-D-PR-H-V-R-R-V-W-R-NH2] |  |  | ~0.007 | 
8 | CC[C@H](C)[C@@H]1NC(=O)[C@](C)(NC(=O)[C@H](CCC(N)=O)NC(=O)[C@@H]2CCCN2C(C)=O)CCCC=CCOC(=O)N2CC[C@](C(=O)N[C@@H](Cc3c[nH]cn3)C(=O)N[C@H](C(=O)N[C@@H](CCCNC(=N)N)C(=O)N[C@@H](CCCNC(=N)N)C(=O)N[C@H](C(=O)N[C@@H](Cc3c[nH]c4ccccc34)C(=O)N[C@@H](CCCNC(=N)N)C(N)=O)C(C)C)C(C)C)(C2)NC(=O)[C@H](CC(=O)O)NC(=O)[C@H](CC(C)C)NC1=O (single isomer, unassigned) [FP0766c, Ac-P-Q-R5-I-L-D-MC-H-V-R-R-V-W-R-NH2] | 0.007 | < 0.1 |  | 
9 | CC[C@H](C)[C@@H]1NC(=O)[C@](C)(NC(=O)[C@H](CCC(N)=O)NC(=O)[C@@H]2CCCN2C(C)=O)CCC=CCOC(=O)N2CC[C@](C(=O)N[C@@H](Cc3c[nH]cn3)C(=O)N[C@H](C(=O)N[C@@H](CCCNC(=N)N)C(=O)N[C@@H](CCCNC(=N)N)C(=O)N[C@H](C(=O)N[C@@H](Cc3c[nH]c4ccccc34)C(=O)N[C@@H](CCCNC(=N)N)C(N)=O)C(C)C)C(C)C)(C2)NC(=O)[C@H](CC(=O)O)NC(=O)[C@H](CC(C)C)NC1=O (single isomer, unassigned) [FP-0765c, Ac-P-Q-R4-I-L-D-PR-H-V-R-R-V-W-R-NH2] |  |  | ~0.013 | 
10 | CC[C@H](C)[C@@H]1NC(=O)C2(NC(=O)[C@H](CCC(N)=O)NC(=O)[C@@H]3CCCN3C(C)=O)CN(C2)C(=O)OCC=CCCCC[C@](C)(C(=O)N[C@@H](Cc2c[nH]cn2)C(=O)N[C@H](C(=O)N[C@@H](CCCNC(=N)N)C(=O)N[C@@H](CCCNC(=N)N)C(=O)N[C@H](C(=O)N[C@@H](Cc2c[nH]c3ccccc23)C(=O)N[C@@H](CCCNC(=N)N)C(N)=O)C(C)C)C(C)C)NC(=O)[C@H](CC(=O)O)NC(=O)[C@H](CC(C)C)NC1=O (single isomer, unassigned) [FP0725c, Ac-P-Q-MA-I-L-D-R6-H-V-R-R-V-W-R-NH2] | 0.022 | < 0.1 |  | 
11 | CC[C@H](C)[C@@H]1NC(=O)[C@@](C)(NC(=O)[C@H](CCC(N)=O)NC(=O)[C@@H]2CCCN2C(C)=O)CCCCCC=CCN2CC(C(=O)N[C@@H](Cc3c[nH]cn3)C(=O)N[C@H](C(=O)N[C@@H](CCCNC(=N)N)C(=O)N[C@@H](CCCNC(=N)N)C(=O)N[C@H](C(=O)N[C@@H](Cc3c[nH]c4ccccc34)C(=O)N[C@@H](CCCNC(=N)N)C(N)=O)C(C)C)C(C)C)(C2)NC(=O)[C@H](CC(=O)O)NC(=O)[C@H](CC(C)C)NC1=O (single isomer, unassigned) [FP0738a, Ac-P-Q-S7-I-L-D-MA-H-V-R-R-V-W-R-NH2] | 0.043 | 0.1 to 0.5 |  | 
12 | CC[C@H](C)[C@@H]1NC(=O)[C@](C)(NC(=O)[C@H](CCC(N)=O)NC(=O)[C@@H]2CCCN2C(C)=O)CCC=CCOC(=O)N2CC[C@](C(=O)N[C@@H](Cc3c[nH]cn3)C(=O)N[C@H](C(=O)N[C@@H](CCCNC(=N)N)C(=O)N[C@@H](CCCNC(=N)N)C(=O)N[C@H](C(=O)N[C@@H](Cc3c[nH]c4ccccc34)C(=O)N[C@@H](CCCNC(=N)N)C(N)=O)C(C)C)C(C)C)(C2)NC(=O)[C@H](CC(=O)O)NC(=O)[C@H](CC(C)C)NC1=O (single isomer, unassigned) [FP0765c, Ac-P-Q-R4-I-L-D-MC-H-V-R-R-V-W-R-NH2] | 0.013 | < 0.1 |  | 
13 | CC[C@H](C)[C@@H]1NC(=O)[C@@]2(NC(=O)[C@H](CCC(N)=O)NC(=O)[C@@H]3CCCN3C(C)=O)CCN(CC=CCCCC[C@](C)(C(=O)N[C@@H](Cc3c[nH]cn3)C(=O)N[C@H](C(=O)N[C@@H](CCCNC(=N)N)C(=O)N[C@@H](CCCNC(=N)N)C(=O)N[C@H](C(=O)N[C@@H](Cc3c[nH]c4ccccc34)C(=O)N[C@@H](CCCNC(=N)N)C(N)=O)C(C)C)C(C)C)NC(=O)[C@H](CC(=O)O)NC(=O)[C@H](CC(C)C)NC1=O)C2 (single isomer, unassigned) [FP-0745a] |  |  | ~0.034 | 
